From patent US8877706B2, “Maytansinoid derivatives” (Bio-Thera Solutions, Ltd., Co., priority 2012, dated 2014)

Legend:
[1] = test system: tubulin; test: HTS-Tubulin Polymerization Assay Kit, tubulin polymerization in vitro; format: biochemical; settings: 1 μM preparations, 10 μL added to 100 μL 4 mg/ml tubulin; 405 nm, 37° C.; compared with the PBS buffer
Experimental: According to the instruction of kit, pre-warm the 96-well plate to 37° C. for 30 min prior to starting the assay. At the same time, the spectrophotometer (SpectraMax, Molecular Devices, USA) was set as follow: wavelength, 405 nm; temperature, 37° C.; Kinetic, 31 cycles of 1 reading per minute. Make cold G-PEM buffer (990 μL General Tubulin Buffer+10 μL GTP Stock) and keep it on ice. […] Immediately place the plate into the spectrophotometer and start recording using the kinetic setup described above. […] Nocodazole, the tubulin polymerization inhibitor, was set as a negative control. The metabolite Cys-3AA-MDC was prepared by reaction of 3AA-MDC with cysteine under the base DIEA in CH2Cl2. LC-MS (M+H^+) calc.: 964.5. found: 964.2. Rt: 12.97 min. The metabolite Lys-MCC-MDC was prepared by reaction of SMCC-MDC with lysine under the base DIEA in DMF. LC-MS (M+H^+) calc.: 1103.7. found: 1103.2. Rt: 13.00 and 13.18 min.

[2] = test system: human acute lymphoblastic leukemia line C.E.M.; settings: cited from earlier work
[3] = versus methotrexate, daunorubicin, and vincristine; cited from earlier work
[4] = test system: EGFR positive tumor cell line A431; test: Growth inhibition, relative cell proliferation with CCK-8, A431; format: cell-based, human; settings: A431, 72 hours
Experimental: Briefly, cells were detached by using 0.25% (vol/vol) trypsin and suspended in complete medium. Aliquots of cells were plated into 96-well microdilution plates. […] After 72 hours, plates were washed twice with PBS (pH 7.5), and analyzed for relative cell proliferation with CCK-8 reagent.

[5] = test system: Raji cells; test: Effect on the growth of Raji cells (CCK-8); settings: 3 days
Experimental: Briefly, 10 thousands cells in 100 μL of DMEM:F12 (GBICO, CA) culture medium without serum were seeded into each well of a 96-well plate. Twice-fold serial dilutions of antibodies or conjugated form were prepared and each diluted antibodies were added in triplicate to the wells and the cultures were incubated at 37° C. for 3 days. The controls consisted of either medium alone or medium containing of Raji cell. After incubation, CCK-8 was added to each well and the absorbance at 450 nm of each well was determined in a Spectra Max spectrophotometer (Molecular Devices, Sunnyvale, Calif.).

For `COc1cc2cc(c1Cl)N(C)C(=O)C[C@H](OC(=O)[C@H](C)N(C)C(=O)CCCCCN1C(=O)C=CC1=O)[C@]1(C)OC1[C@H](C)[C@@H]1C[C@@](O)(NC(=O)O1)[C@H](OC)/C=C/C=C(\C)C2` (stereo partly shown) [3AA-MDC, N2′-deacetyl-N2′-(6-maleimido-1-oxo-hexyl)maytansine], the “inhibition of tubulin polymerization” value [1] was “significantly inhibited the tubulin polymerization”.
With `CN[C@@H](C)C(=O)OC1CC(=O)N(C)c2cc(cc(OC)c2Cl)C/C(C)=C/C=C/C(OC)C2(O)CC(OC(=O)N2)C(C)C2OC12C` (stereo partly shown) [Cys-3AA-MDC] the “inhibition of tubulin polymerization” value [1] was “significantly inhibited the tubulin polymerization”.
For `COc1cc2cc(c1Cl)N(C)C(=O)C[C@H](OC(=O)[C@H](C)N(C)C(=O)CCSC1CC(=O)N(CC3CCC(C(=O)NCCCC[C@H](N)C(=O)O)CC3)C1=O)[C@]1(C)O[C@H]1[C@H](C)[C@@H]1C[C@@](O)(NC(=O)O1)[C@H](OC)/C=C/C=C(\C)C2` (stereo partly shown) [Lys-mcc-MDC], the “inhibition of tubulin polymerization” value [1] was “significantly inhibited the tubulin polymerization”.
For `COc1cc2cc(c1Cl)N(C)C(=O)C[C@H](OC(=O)[C@H](C)N(C)C(C)=O)[C@]1(C)O[C@H]1[C@H](C)[C@@H]1C[C@@](O)(NC(=O)O1)[C@H](OC)/C=C/C=C(\C)C2` [Maytansine], the “concentration inhibiting C.E.M. line (as low as)” value [2] is listed as 10^−7 μg/mL and the “fold more cytotoxic than conventional chemotherapeutic agents” value [3] is listed as 100- to 1000 fold.
With “Bat1206: monoclonal antibody (rituximab) binding the extracellular domain of CD20” the “inhibition of A431 cell proliferation” value [4] was “had no effects on A431 cells” and the “inhibition of CD20 positive cell growth” value [5] was “inhibitory effects”.
